From US11339122B2, “hTRPV1 chemical agents” (UNIVERSITY OF PITTSBURGH—OF THE COMMONWEALTH SYSTEM OF …, priority 2015, dated 2022)
“And” between values parts separate entries of the source, which are not always exact repeats. Equal entries are not always repeated.

How the values were obtained:
[1] = target: T1, hTRPV1 (Homo sapiens (Human), UniProt Q8NER1); assay: [3H]RTX competition binding assay (membranes of induced CHO-hTRPV1 cells); conditions: approximately 2 nM [3H]RTX, 37° C., 60 minutes; read-out: Ki for inhibition of [3H]RTX binding to hTRPV1
T1 sequence (Q8NER1 whole entry): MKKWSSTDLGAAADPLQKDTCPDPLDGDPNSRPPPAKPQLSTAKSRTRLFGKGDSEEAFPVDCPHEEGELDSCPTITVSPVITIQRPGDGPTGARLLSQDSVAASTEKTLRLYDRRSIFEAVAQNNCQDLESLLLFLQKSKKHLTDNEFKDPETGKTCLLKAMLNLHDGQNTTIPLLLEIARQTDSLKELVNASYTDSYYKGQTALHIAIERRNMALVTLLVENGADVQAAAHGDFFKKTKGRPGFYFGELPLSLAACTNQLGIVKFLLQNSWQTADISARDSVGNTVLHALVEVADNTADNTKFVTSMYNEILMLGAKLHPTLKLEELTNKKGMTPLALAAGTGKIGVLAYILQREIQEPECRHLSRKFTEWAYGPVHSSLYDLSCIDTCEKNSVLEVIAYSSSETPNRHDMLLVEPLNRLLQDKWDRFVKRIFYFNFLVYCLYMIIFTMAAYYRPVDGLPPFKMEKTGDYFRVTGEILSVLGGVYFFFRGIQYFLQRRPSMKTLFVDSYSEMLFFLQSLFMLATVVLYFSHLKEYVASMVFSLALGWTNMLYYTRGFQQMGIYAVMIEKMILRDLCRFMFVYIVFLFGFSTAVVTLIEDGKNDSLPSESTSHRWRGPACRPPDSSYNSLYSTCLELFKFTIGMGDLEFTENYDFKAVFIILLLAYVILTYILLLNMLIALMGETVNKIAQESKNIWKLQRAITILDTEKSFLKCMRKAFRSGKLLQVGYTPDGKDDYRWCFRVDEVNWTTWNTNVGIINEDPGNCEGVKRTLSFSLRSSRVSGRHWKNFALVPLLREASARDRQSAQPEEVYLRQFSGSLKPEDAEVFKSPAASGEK
Method: (§1) Tet-On induced CHO-hTRPV1 cells were cultured in maintaining medium (F12 supplemented with 10% TET-free FBS [Atlanta Biologicals, GA], 25 mM HEPES, 10 μg/ml blasticidin and 250 μg/ml geneticin (all from Invitrogen Life Sciences; Grand Island, N.Y.). TRPV1 protein was induced with induction medium (F12 supplemented with 10% FBS, 25 mM HEPES, and 1 μg/ml tetracycline) as described below for ligand binding and Ca uptake measurements.
Binding studies with [^3H]RTX were carried out as follows. The binding assay mixtures were prepared in 1.5 ml centrifuge tubes and consisted of a fixed concentration (approximately 2 nM) of [^3H]RTX (37 Ci/mmol specific activity, PerkinElmer Life Sciences), various concentrations of competing ligands, and […] of membranes from induced CHO-hTRPV1 expressing cells (approximately 1-3×10^6 cells) in Dulbecco's phosphate buffered saline (DPBS, with Ca^2+ & Mg^2+) for a total volume of 350 μl. The assay mix contained bovine serum albumin at a final concentration of 0.25 mg/ml (Cohn fraction V; Sigma-Aldrich, St. Louis, Mo.). In each set of experiments, nonspecific binding were determined in the presence of 200 nM non-radioactive RTX. The binding reaction was initiated by placing the assay mixture in a 37° C. shaking water bath for 60 minutes ([…]). The assay mixture was then chilled on ice for 2-3 min before adding 100 μl of α1-acid glycoprotein (2 mg/ml; Sigma-Aldrich) and mixed thoroughly. The tubes were kept on ice for an additional 10 min. The bound and free ligands were then separated by centrifugation (12,200 rpm for 15 minutes) in a Beckman Coulter centrifuge Allegra 21R. 200 μl of supernatant was collected for determination of free ligand. The remainder was removed by aspiration. The bottom portion of the tubes containing the membranes was cut off and bound radioactivity determined. Radioactivity was measured by scintillation counting. Data were analyzed using GraphPad Prism. Ki values for compounds were determined by competition for binding of [^3H]RTX to the hTRPV1 and represent the mean SEM of triplicate binding curves. […]

[2] = target: T1, hTRPV1; assay: Ca2+ uptake assay, capsaicin antagonism (CHO-hTRPV1 cells); type: cell-based; conditions: for % inhibition at 30 μM (capsaicin antagonism) / inhibition at 30 µM: compound at 30 μM, capsaicin 30 nM; for Ki: capsaicin (30 nM) stimulated Ca2+ uptake
Method: as §1
(§2) CHO-hTRPV1 cells were plated in 24-well plates, reaching 40 to 60% confluence in maintaining medium after 24 hours. The cells were washed once with Dulbecco's phosphate buffered saline (DPBS; Invitrogen, Grand Island, N.Y.) to remove antibiotics, and fresh medium with tetracycline (inducing medium) was added to induce TRPV1 expression. Experiments were done approximately 24 hours after induction. The cells were at least 90% confluent at the time of the assays.
(§3) For agonist Ca^2+ uptake assays, the inducing medium was aspirated and replaced by DMEM (supplemented with bovine serum albumin (0.25 mg/mL), […], and 100 μl of increasing concentrations of the non-radioactive ligand for a total volume of 400 μl/well. The cells were incubated for 5 min in a water bath at 37° C. For uptake measurements by a full agonist, a saturating concentration of capsaicin (3000 nM) was used as a positive control. Immediately after incubation, the assay medium was aspirated and the cells were washed twice with ice cold DPBS (no Ca^2+ & Mg^2+).The cells were then lysed in radioimmunoprecipitation assay buffer (50 mM Tris-Cl pH 7.5, 150 mM NaCl, 1% Triton X-100, 1% SDS, and 1% sodium deoxycholate; 400 μL/well) for at least 40 min on a shaker. Aliquots (300 μL) of the cell lysates were counted in a liquid scintillation counter. Background uptake was determined in the absence of either compound or capsaicin. For the antagonism assays, capsaicin (30 nM) was included along with increasing concentrations of the ligand being evaluated. The cells were incubated for 5 min in a water bath at 37° C. Immediately after incubation, the assay medium was aspirated and the cells were washed twice with ice-cold DPBS (no Ca^2+ & Mg^2+). The cells were then lysed in radioimmunoprecipitation assay buffer for at least 40 min on a shaker. Aliquots of the cell lysate were counted in a liquid scintillation counter. Triplicate points at each concentration of ligand were determined in each experiment. Compounds were initially screened at a concentration of 30 µM. Compounds showing greater than 10% agonism/antagonism were evaluated in triplicate experiments. As indicated, full dose response curves for compounds showing activity were performed at least three times. Data was analyzed using GraphPad Prism.

[3] = target: T1, hTRPV1; assay: Agonist Ca2+ uptake assay (CHO-hTRPV1 cells); type: cell-based
Method: as §1, §2
as §3, with “The cells were incubated for 5 min in a water bath at 37° C. Immediately after incubation, the assay medium was aspirated and the cells were washed twice with ice-cold DPBS (no Ca^2+ & Mg^2+). The cells were then lysed in radioimmunoprecipitation assay buffer for at least 40 min on a shaker.” left out, “Triplicate points at each concentration of ligand were determined in each experiment. Compounds were initially screened at a concentration of 30 µM. Compounds showing greater than 10% agonism/antagonism were evaluated in triplicate experiments. As indicated, full dose response curves for compounds showing activity were performed at least three times.” left out

[4] = target: cannabinoid receptor 2 (CB2) (Homo sapiens (Human), UniProt P34972); assay: Binding at the cannabinoid receptor 2 (CB2)
Chain of cannabinoid receptor 2 (CB2) (P34972 whole entry, species assumed): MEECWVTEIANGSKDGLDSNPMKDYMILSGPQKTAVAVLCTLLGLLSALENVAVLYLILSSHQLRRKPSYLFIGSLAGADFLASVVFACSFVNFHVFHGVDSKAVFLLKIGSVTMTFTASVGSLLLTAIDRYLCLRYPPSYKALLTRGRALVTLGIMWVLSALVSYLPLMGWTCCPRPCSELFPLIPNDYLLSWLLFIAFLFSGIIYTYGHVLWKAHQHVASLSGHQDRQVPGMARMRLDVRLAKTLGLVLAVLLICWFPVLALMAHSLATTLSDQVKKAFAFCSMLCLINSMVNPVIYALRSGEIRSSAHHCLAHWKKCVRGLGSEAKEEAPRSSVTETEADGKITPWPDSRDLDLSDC

| Compound | inhibition at 30 µM [2] [%] | Ki [2] | other results |
| --- | --- | --- | --- |
| O=C(Nc1cccc(C(F)(F)F)c1)Nc1ccc([N+](=O)[O-])cc1Cl [Compound 1] | 98.2 ± 2.7 |  | Ki [1]: 1110 ± 210 nM; % inhibition at 30 μM (capsaicin antagonism) [2]: 92.2 ± 2.7% |
| Cc1cc([N+](=O)[O-])ccc1NC(=O)Nc1cccc(F)c1 [Compound 2] | 79.9 ± 4.9 | 4.5 µM and 4.52 µM | Ki [1]: 5200 ± 320 nM; Ki ([2]; listed as compound 2): 4.5 ± 0.88 µM |
| NC(=O)c1ccccc1NC(=O)Nc1ccc(F)cc1 [Compound 3] | 32 ± 8 |  |  |
| CCOC(=O)c1ccc(NC(=O)Nc2cccc(Cl)c2)cc1 [Compound 4] | 64.5 | 11.7 ± 1.3 µM |  |
| CCOC(=O)c1ccc(NC(=O)Nc2ccc(F)cc2)cc1 [Compound 5] |  |  | functional character at hTRPV1 [3]: partial agonist; EC50 ([3]; Ca2+ uptake, CHO-hTRPV1 cells, read-out: EC50 for capsaicin agonism): 2840 ± 210 nM; Emax ([3]; relative to 3000 nM capsaicin, read-out: maximal stimulation, % of that by 3000 nM capsaicin (% agonism)): 55.7 ± 7.8% |
| CCOC(=O)c1ccc(NC(=O)Nc2cc(Cl)ccc2C)cc1 [Compound 6] | 34 ± 7 |  |  |
| COc1ccc(Cl)cc1NC(=O)Nc1ccc(CCO)cc1 [Compound 7] | 33 ± 7 |  |  |
| COc1ccc(C)cc1NC(=O)Nc1ccccc1F [Compound 8] | 28 ± 6 |  |  |
| Cc1cc(O)c(C(C)C)cc1NC(=O)Nc1ccc(Br)cc1 [Compound 9] | 27 ± 14 |  |  |
| CSc1ccc(NC(=O)Nc2ccc(Cl)cc2[N+](=O)[O-])cc1 [Compound 11] |  | 3.7 ± 1.7 µM | % inhibition at 30 μM (capsaicin antagonism) [2]: 61 ± 18% |
| Cc1ccc(Cl)cc1NC(=O)Nc1cccc2c(O)cccc12 [Compound 13] | 72 | 3.7 ± 1 µM |  |
| O=C(Nc1ccc(F)c([N+](=O)[O-])c1)Nc1cccc2c(O)cccc12 [Compound 14] |  | 0.47 ± 0.18 µM | Ki [1]: 650 ± 260 nM; % inhibition at 30 μM (capsaicin antagonism) [2]: 100 ± 0%; Ki [4]: 15.9 µM |
| Cc1c(Cl)cccc1NC(=O)Nc1cccc2c(O)cccc12 [Compound 15] | 99.6 | 0.49 ± 0.14 µM | Ki [4]: 1.39 µM |
| Cc1c(Cl)cccc1NC(=O)Nc1cccc(O)c1 [Compound 16] | 100 | 0.56 ± 0.16 µM | Ki [4]: 12.2 µM |
| O=C1C(=O)c2cc(Br)cc([N+](=O)[O-])c2-c2ccc(Br)cc21 [Compound 17] |  | 2.15 ± 0.72 µM | % inhibition at 30 μM (capsaicin antagonism) [2]: 66 ± 11% |
| O=C(Nc1cc(C(F)(F)F)ccc1Cl)c1ccccc1F [Compound 18] | 51.8 | 7 ± 2 µM |  |
| CCN(CC)c1ccc(CNS(=O)(=O)c2ccc(NC(C)=O)cc2)cc1 [XIE1-203Y, N-(4-(N-(4-(diethylamino)benzyl)sulfamoyl)phenyl)acetamide] | 12.7 ± 1 |  |  |
